# From patent publication US8962690B2, “Compositions of dibromomalonamide and their use as biocides” (priority 2009, dated 2015)
# Structures can show the parent of a compound that is named as a salt. Where two headings read alike, the source gives them in different places.
# Legend:
# [1] = system: mixture of Pseudomonas aeruginosa, Klebsiella pneumoniae, Staphylococcus aureus, and Bacillus subtilis; assay: Growth Inhibition Assay (microtiter plate, OD580); format: cell-based; details: for inhibition at 0.39 µg/mL / inhibition at 0.78 µg/mL / inhibition at 1.56 µg/mL / inhibition at 3.13 µg/mL / inhibition at 6.25 µg/mL / inhibition at 12.5 µg/mL / inhibition at 25 µg/mL: 24 h
# Excerpt: Regardless of the mechanism of action, the impact of a biocide (or combination of biocides) can be measured over time on the basis of an increase in the size of the community.
# The assay measures the efficacy of one or more biocides at preventing growth of a consortium of bacteria in a dilute mineral salts medium. The medium contains (in mg/l) the following components: FeCl3.6H2O (1); CaCl2.2H2O (10); MgSO4.7H2O (22.5); (NH4)2SO4 (40); KH2PO4 (10); K2HPO4 (25.5); Yeast Extract (10); and glucose (100). After all components are added to deionized water, the pH of the medium is adjusted to 7.5. Following filter sterilization, aliquots are dispensed in 100 ul quantities to sterile microtiter plate wells. Dilutions of DBMAL and/or “Biocide B” are then added to the microtiter plate. After preparing the combinations of actives as illustrated below, each well is inoculated with 100 μl of a cell suspension containing ca. 1×10^6 cells per milliliter of a mixture of Pseudomonas aeruginosa, Klebsiella pneumoniae, Staphylococcus aureus, and Bacillus subtilis. The final total volume of medium in each well is 300 μl. Once prepared as described herein, the concentration of each active ranges from 25 ppm to 0.195 ppm as illustrated in Table 1. The resulting matrix allows testing of eight concentrations of each active and 64 combinations of actives in the ratios (of actives).
# Controls (not shown) contain the medium with no biocide added. After preparing the combinations of actives as illustrated above, each well is inoculated with 100 μl of a cell suspension containing ca. 1×10^6 cells per milliliter of a mixture of Pseudomonas aeruginosa, Klebsiella pneumoniae, Staphylococcus aureus, and Bacillus subtilis. The final total volume of medium in each well is 300 μl.
# Immediately after the microtiter plates are prepared, the optical density (OD) readings for each well is measured at 580 nm and the plates are then incubated at 37° C. for 24 hr. After the incubation period, the plates are gently agitated before OD580 values are collected. The OD580 values at T0 are subtracted from T24 values to determine the total amount of growth (or lack thereof) that occurs. These values are used to calculate the percent inhibition of growth caused by the presence of each biocide and each of the 64 combinations.
# where • CDBMAL: Concentration of DBMAL required to inhibit ˜90% of bacterial growth when used alone • CB: Concentration of biocide (B) required to inhibit ˜90% of bacterial growth when used alone. • MDBMAL: Concentration of DBMAL required to inhibit ˜90% of bacterial growth when used in combination with biocide (B). • MB: Concentration of biocide (B) required to inhibit ˜90% of bacterial growth when used in combination with DBMAL The SI values are interpreted as follows: • SI<1: Synergistic • SI=1: Additive • SI>1: Antagonistic
# In the Examples below, the amounts of biocides in the solution are measured in mg per liter of solution (mg/l). Since solution densities are approximately 1.00, the mg/l measurement corresponds to weight ppm. Both units may therefore be used interchangeably in the Examples.
# [2] = system: mixture of Pseudomonas aeruginosa ATCC 10145 and Staphylococcus aureus ATCC 6538; assay: Kill Assay (minimum biocide concentration, MBC); format: cell-based; details: 2 h
# Experimental: Kill Assay. This assay is used as a preliminary evaluation of synergy between the actives. The procedure is as follows. A mineral salts solution (0.2203 g of CaCl2, 0.1847 g of MgSO4, and 0.2033 g of NaHCO3 in 1 L water, approximately pH 8) is inoculated with equal amounts (about 10^7CFU/ml) of a mixture of Pseudomonas aeruginosa ATCC 10145 and Staphylococcus aureus ATCC 6538. Aliquots of the cell suspension are then treated with 2,2-dibromomalonamide (“DBMAL”), a surface active biocide, and their combinations at various concentration levels. […] The MBC values are then used to calculate a synergy index (SI) values. Summaries of the kill assay results are presented in the individual Examples. In each table, MBC values for each biocide and the blends tested are presented. Likewise, the Synergy Index (“SI”) values for the combinations are listed. SI is calculated with the following equation: Synergy Index=Ca/CA+Mb/CB where • Ca: Concentration of biocide A required for complete bacterial kill when used in combination with biocide B • CA: Concentration of biocide A required for complete bacterial kill when used alone • Cb: Concentration of biocide B required for complete bacterial kill when used in combination with biocide A • CB: […] Antagonistic
# [3] = read-out: % Inhibition of growth by DDMAC
# [4] = read-out: % Inhibition of growth by DGH
compound,measurement,setting,value
C12-C16 alkyl dimethyl benzyl ammonium chloride [ADBAC],% Inhibition of growth by ADBAC,"[1]; ADBAC alone 0.78 mg/l, 24 hr",6%
same,% Inhibition of growth by ADBAC,"[1]; ADBAC alone 1.56 mg/l, 24 hr",50%
same,90% inhibition of growth concentration (I90),"[1]; single active, 24 hr",3.13 mg/L
"CCCCCCCCCC[N+](C)(C)CCCCCCCCCC [DDMAC, didecyldimethyl ammonium chloride]",inhibition at 0.39 µg/mL,[1]; [3],12%
same,inhibition at 0.78 µg/mL,[1]; [3],23%
same,inhibition at 1.56 µg/mL,[1]; [3],26%
same,inhibition at 3.13 µg/mL,[1]; [3],46%
same,inhibition at 6.25 µg/mL,[1]; [3],100%
same,inhibition at 12.5 µg/mL,[1]; [3],100%
same,inhibition at 25 µg/mL,[1]; [3],100%
"CCCCCCCC[N+](C)(C)CCCCCCCC.[Cl-] [DDAC, dioctyl dimethyl ammonium chloride]",MBC,"[2]; read-out: MBC, 2nd biocide DDAC",> 150 µg/mL
"NC(=O)C(Br)(Br)C(N)=O [DBMAL, 2,2-dibromomalonamide]",MBC,"[2]; read-out: MBC, 1st biocide DBMAL",66.7 µg/mL
same,inhibition at 0.39 µg/mL,"[1]; DBMAL alone 0.39 mg/l, 24 hr (Table 3), read-out: % Inhibition of growth by DBMAL",28%
same,inhibition at 0.39 µg/mL,"[1]; DBMAL alone 0.39 mg/l, 24 hr (Table 7), read-out: % Inhibition of growth by DBMAL",19%
same,inhibition at 0.78 µg/mL,"[1]; DBMAL alone 0.78 mg/l, 24 hr (Table 3), read-out: % Inhibition of growth by DBMAL",34%
same,inhibition at 0.78 µg/mL,"[1]; DBMAL alone 0.78 mg/l, 24 hr (Table 5), read-out: % Inhibition of growth by DBMAL",3%
same,inhibition at 0.78 µg/mL,"[1]; DBMAL alone 0.78 mg/l, 24 hr (Table 7), read-out: % Inhibition of growth by DBMAL",14%
same,inhibition at 1.56 µg/mL,"[1]; DBMAL alone 1.56 mg/l, 24 hr (Table 3), read-out: % Inhibition of growth by DBMAL",26%
same,inhibition at 1.56 µg/mL,"[1]; DBMAL alone 1.56 mg/l, 24 hr (Table 7), read-out: % Inhibition of growth by DBMAL",8%
same,inhibition at 3.13 µg/mL,"[1]; DBMAL alone 3.13 mg/l, 24 hr (Table 3), read-out: % Inhibition of growth by DBMAL",1%
same,inhibition at 3.13 µg/mL,"[1]; DBMAL alone 3.13 mg/l, 24 hr (Table 5), read-out: % Inhibition of growth by DBMAL",1%
same,inhibition at 3.13 µg/mL,"[1]; DBMAL alone 3.13 mg/l, 24 hr (Table 7), read-out: % Inhibition of growth by DBMAL",10%
same,inhibition at 6.25 µg/mL,"[1]; DBMAL alone 6.25 mg/l, 24 hr (Table 5), read-out: % Inhibition of growth by DBMAL",5%
same,inhibition at 6.25 µg/mL,"[1]; DBMAL alone 6.25 mg/l, 24 hr (Table 7), read-out: % Inhibition of growth by DBMAL",16%
same,inhibition at 6.25 µg/mL,"[1]; DBMAL alone 6.25 mg/l, 24 hr (Table 9), read-out: % Inhibition of growth by DBMAL",18%
"CCCCCCCCCCCCNC(=N)N [DGH, dodecylguanidine hydrochloride]",inhibition at 0.39 µg/mL,[1]; [4],3%
same,inhibition at 0.78 µg/mL,[1]; [4],0%
same,inhibition at 1.56 µg/mL,[1]; [4],0%
same,inhibition at 3.13 µg/mL,[1]; [4],3%
same,inhibition at 6.25 µg/mL,[1]; [4],52%
same,inhibition at 12.5 µg/mL,[1]; [4],100%
same,inhibition at 25 µg/mL,[1]; [4],100%
